Earlier results on 2 compounds are cited in patent publication US8652520B2, “Combination tablet with chewable outer layer” (Vitalis LLC, priority 2007, dated 2014).

The conditions of data set [1]: risk of bleeding peptic ulcer, literature.
Data set [2] has as its system anti-platelet activity of aspirin. As to conditions: co-administered with aspirin, literature.

Regarding `O=C(O)Cc1ccccc1Nc1c(Cl)cccc1Cl` [diclofenac], in data set [1], the “GI side effects among the NSAID agents” value was “least GI side effects”.
`CC(C)Cc1ccc(C(C)C(=O)O)cc1` (stereo not drawn) [ibuprofen, 2-[4-(2-methylpropyl)phenyl]propanoic acid]: in data set [2], the “anti-platelet activity of aspirin when given in conjunction” value is given as “decreased”. For the same compound, the “GI side effects among the NSAID agents” value in data set [1] is on record as “least GI side effects”.
